Measured values as given in patent US8765773B2, “Substituted hydroxamic acids and uses thereof” (Millennium Pharmaceuticals, Inc., priority 2010, dated 2014).

molecular target: T1, purified human HDAC6 (Homo sapiens, UniProt Q9UBN7); experiment: HDAC6 Enzyme Assay; type: biochemical; details: compound concentration 0.37 μM, read-out: Percent Inhibition
T1 construct: purchased BPS Bioscience 5006
T1 sequence (Q9UBN7 1-1215): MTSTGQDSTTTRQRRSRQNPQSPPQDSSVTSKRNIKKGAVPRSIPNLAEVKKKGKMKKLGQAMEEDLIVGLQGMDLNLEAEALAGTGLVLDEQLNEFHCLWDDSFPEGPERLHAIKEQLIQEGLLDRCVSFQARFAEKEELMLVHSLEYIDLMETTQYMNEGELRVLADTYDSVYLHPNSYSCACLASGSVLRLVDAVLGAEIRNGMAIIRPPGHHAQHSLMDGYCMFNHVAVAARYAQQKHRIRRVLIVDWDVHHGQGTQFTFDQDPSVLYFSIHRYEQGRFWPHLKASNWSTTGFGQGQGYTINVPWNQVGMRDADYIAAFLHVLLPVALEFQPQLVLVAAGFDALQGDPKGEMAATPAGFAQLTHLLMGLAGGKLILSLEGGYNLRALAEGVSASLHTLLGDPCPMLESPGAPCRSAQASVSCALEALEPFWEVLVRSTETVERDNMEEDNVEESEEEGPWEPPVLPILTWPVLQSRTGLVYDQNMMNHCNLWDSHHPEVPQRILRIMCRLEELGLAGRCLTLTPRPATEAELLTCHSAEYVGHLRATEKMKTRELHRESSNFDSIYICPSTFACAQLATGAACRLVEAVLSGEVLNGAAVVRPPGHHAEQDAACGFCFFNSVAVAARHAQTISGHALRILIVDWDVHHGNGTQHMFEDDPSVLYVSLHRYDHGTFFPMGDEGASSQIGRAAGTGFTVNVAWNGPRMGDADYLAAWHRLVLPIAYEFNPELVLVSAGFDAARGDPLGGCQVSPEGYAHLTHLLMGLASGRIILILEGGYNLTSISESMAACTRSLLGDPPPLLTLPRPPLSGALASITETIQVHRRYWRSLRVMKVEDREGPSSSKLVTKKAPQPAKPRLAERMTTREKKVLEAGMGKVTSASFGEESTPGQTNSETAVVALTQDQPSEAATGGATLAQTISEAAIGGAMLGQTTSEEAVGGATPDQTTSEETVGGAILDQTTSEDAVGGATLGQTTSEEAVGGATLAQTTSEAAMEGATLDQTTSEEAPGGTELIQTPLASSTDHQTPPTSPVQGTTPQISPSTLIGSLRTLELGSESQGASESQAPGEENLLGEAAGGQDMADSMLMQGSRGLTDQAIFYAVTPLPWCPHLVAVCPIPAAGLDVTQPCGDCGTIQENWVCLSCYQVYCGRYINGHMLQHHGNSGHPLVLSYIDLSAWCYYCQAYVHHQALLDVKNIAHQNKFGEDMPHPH
How it was run: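 Readout is AMC fluorescence (Ex 340 nm, Em 460 nm) after trypsin cleavage of the deacetylated Ac-Arg-Gly-Lys(Ac)-AMC product. Reaction: purified human HDAC6, compound or vehicle, 1 hour, 30° C, quenched by trichostatin A. Single-concentration percent inhibition or IC50 calculated versus DMSO-treated samples.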

inhibition at 0.37 µM [%]	Compound
100	O=C(NO)c1ccc2ccn(CCC(c3ccc(Cl)cc3)C3CCNCC3)c(=O)c2c1 (stereo not drawn) [Compound I-103, 2-[3-(4-chlorophenyl)-3-piperidin-4-ylpropyl]-N-hydroxy-1-oxo-1,2-dihydroisoquinoline-7-carboxamide]
93.8	O=C(NO)c1ccc2ncn(Cc3cccc(N4CCOCC4)c3)c(=O)c2c1 [Compound I-114, N-hydroxy-3-(3-morpholin-4-ylbenzyl)-4-oxo-3,4-dihydroquinazoline-6-carboxamide]
92.2	O=C(NO)c1ccc2ncn(Cc3cccc(-c4c(Cl)cccc4Cl)c3)c(=O)c2c1 [Compound I-23, 3-[(2′,6′-dichlorobiphenyl-3-yl)methyl]-N-hydroxy-4-oxo-3,4-dihydroquinazoline-6-carboxamide]
96.8	CC(C)C(c1ccccc1)n1cnc2ccc(C(=O)NO)cc2c1=O (stereo not drawn) [Compound I-338, N-hydroxy-3-(2-methyl-1-phenylpropyl)-4-oxo-3,4-dihydroquinazoline-6-carboxamide]
56	CC(C)NCCn1cnc2ccc(C(=O)NO)cc2c1=O [Compound I-294, N-hydroxy-3-[2-(isopropylamino)ethyl]-4-oxo-3,4-dihydroquinazoline-6-carboxamide]
89.8	O=C(NO)c1ccc2ncn(Cc3cccc(-c4cccc(OC(F)(F)F)c4)c3)c(=O)c2c1 [Compound I-37, N-hydroxy-4-oxo-3-{[3′-(trifluoromethoxy)biphenyl-3-yl]methyl}-3,4-dihydroquinazoline-6-carboxamide]
88	O=C(NO)c1ccc2c(=O)n(Cc3ccc(C(F)(F)F)cc3)c(-c3cnc(N4CCOCC4)s3)nc2c1 [Compound I-237, N-hydroxy-2-(2-morpholin-4-yl-1,3-thiazol-5-yl)-4-oxo-3-[4-(trifluoromethyl)benzyl]-3,4-dihydroquinazoline-7-carboxamide]
82	O=C(NO)c1ccc2ncn(Cc3cccc(-c4ccc(C(F)(F)F)cc4)c3)c(=O)c2c1 [Compound I-69, N-hydroxy-4-oxo-3-{[4′-(trifluoromethyl)biphenyl-3-yl]methyl}-3,4-dihydroquinazoline-6-carboxamide]
92.4	CC(C)(C)C(=O)Nc1ncccc1-c1cccc(Cn2cnc3ccc(C(=O)NO)cc3c2=O)c1 [Compound I-230, 3-(3-{2-[(2,2-dimethylpropanoyl)amino]pyridin-3-yl}benzyl)-N-hydroxy-4-oxo-3,4-dihydroquinazoline-6-carboxamide]
94.2	Cc1ccccc1-c1cccc(CCn2cnc3ccc(C(=O)NO)cc3c2=O)c1 [Compound I-296, N-hydroxy-3-[2-(2′-methylbiphenyl-3-yl)ethyl]-4-oxo-3,4-dihydroquinazoline-6-carboxamide]
86.6	Cc1ccccc1Cc1nc2cc(C(=O)NO)ccc2c(=O)[nH]1 [Compound I-406, N-hydroxy-2-(2-methylbenzyl)-4-oxo-3,4-dihydroquinazoline-7-carboxamide]
91.5	O=C(NO)c1ccc2ccn(CCC(c3ccc(Cl)cc3)c3ccc(Cl)cc3)c(=O)c2c1 [Compound I-293, 2-[3,3-bis(4-chlorophenyl)propyl]-N-hydroxy-1-oxo-1,2-dihydroisoquinoline-7-carboxamide]

same assay, conditions: compound concentration 0.412 μM, read-out: Percent Inhibition

Compound	inhibition at 0.412 µM [%]
CC(C)Nc1nc2cc(C(=O)NO)ccc2c(=O)n1-c1ccc(Cl)cc1 [Compound I-40, 3-(4-chlorophenyl)-N-hydroxy-2-(isopropylamino)-4-oxo-3,4-dihydroquinazoline-7-carboxamide]	44.5
Cc1nn(-c2ccccc2)nc1Cn1ccc2ccc(C(=O)NO)cc2c1=O [Compound I-234, N-hydroxy-2-[(5-methyl-2-phenyl-2H-1,2,3-triazol-4-yl)methyl]-1-oxo-1,2-dihydroisoquinoline-7-carboxamide]	98.6
O=C(NO)c1ccc2ccn(C3c4ccccc4-c4ccccc43)c(=O)c2c1 [Compound I-201, 2-(9H-fluoren-9-yl)-N-hydroxy-1-oxo-1,2-dihydroisoquinoline-7-carboxamide]	88.8
O=C(NO)c1ccc2ccn(CCCOc3ccc(-n4ccnc4)cc3)c(=O)c2c1 [Compound I-129, N-hydroxy-2-{3-[4-(1H-imidazol-1-yl)phenoxy]propyl}-1-oxo-1,2-dihydroisoquinoline-7-carboxamide]	96.3
O=C(NO)c1ccc2ccn(CCCOc3ccc(-c4csnn4)cc3)c(=O)c2c1 [Compound I-90, N-hydroxy-1-oxo-2-{3-[4-(1,2,3-thiadiazol-4-yl)phenoxy]propyl}-1,2-dihydroisoquinoline-7-carboxamide]	97.7
O=C(NO)c1ccc2c(=O)n(Cc3ccc(C(F)(F)F)cc3)c(C3CCCCC3)nc2c1 [Compound I-150, 2-cyclohexyl-N-hydroxy-4-oxo-3-[4-(trifluoromethyl)benzyl]-3,4-dihydroquinazoline-7-carboxamide]	30.1
COc1cc(OC)cc(OCCn2ccc3ccc(C(=O)NO)cc3c2=O)c1 [Compound I-101, 2-[2-(3,5-dimethoxyphenoxy)ethyl]-N-hydroxy-1-oxo-1,2-dihydroisoquinoline-7-carboxamide]	95.7
CCOCCn1ccc2ccc(C(=O)NO)cc2c1=O [Compound I-218, 2-(2-ethoxyethyl)-N-hydroxy-1-oxo-1,2-dihydroisoquinoline-7-carboxamide]	90.4
NC(=O)CCn1ccc2ccc(C(=O)NO)cc2c1=O [Compound I-250, 2-(3-amino-3-oxopropyl)-N-hydroxy-1-oxo-1,2-dihydroisoquinoline-7-carboxamide]	77

Continued, values first:

inhibition at 0.412 µM [%]	Compound
95.2	O=C(NO)c1ccc2ccn(CCOc3cccc4c3CCC4)c(=O)c2c1 [Compound I-196, 2-[2-(2,3-dihydro-1H-inden-4-yloxy)ethyl]-N-hydroxy-1-oxo-1,2-dihydroisoquinoline-7-carboxamide]
96.2	O=C(NO)c1ccc2ccn(CCc3ccc(Cl)cc3)c(=O)c2c1 [Compound I-236, 2-[2-(4-chlorophenyl)ethyl]-N-hydroxy-1-oxo-1,2-dihydroisoquinoline-7-carboxamide]
91	O=C(NO)c1ccc2ccn(CCNCc3cccc(C(F)(F)F)c3)c(=O)c2c1 [Compound I-77, N-hydroxy-1-oxo-2-(2-{[3-(trifluoromethyl)benzyl]amino}ethyl)-1,2-dihydroisoquinoline-7-carboxamide]
95.6	O=C(NO)c1ccc2ccn(CCNc3ccc(Cl)cc3)c(=O)c2c1 [Compound I-113, 2-{2-[(4-chlorophenyl)amino]ethyl}-N-hydroxy-1-oxo-1,2-dihydroisoquinoline-7-carboxamide]
87.9	CC(C)(C)OC(=O)Nc1cccc(Cn2ccc3ccc(C(=O)NO)cc3c2=O)c1 [Compound I-266, tert-butyl (3-{[7-[(hydroxyamino)carbonyl]-1-oxoisoquinolin-2(1H)-yl]methyl}phenyl)carbamate]
57.5	O=C(NO)c1ccc2ccn(CCN(Cc3cccc(C(F)(F)F)c3)Cc3cccc(C(F)(F)F)c3)c(=O)c2c1 [Compound I-253, 2-(2-{bis[3-(trifluoromethyl)benzyl]amino}ethyl)-N-hydroxy-1-oxo-1,2-dihydroisoquinoline-7-carboxamide]
59.5	NCCn1ccc2ccc(C(=O)NO)cc2c1=O [Compound I-207, 2-(2-aminoethyl)-N-hydroxy-1-oxo-1,2-dihydroisoquinoline-7-carboxamide]
92.9	O=C(NO)c1ccc2ccn(Cc3ccc(OC(F)(F)F)cc3)c(=O)c2c1 [Compound I-190, N-hydroxy-1-oxo-2-[4-(trifluoromethoxy)benzyl]-1,2-dihydroisoquinoline-7-carboxamide]
94.3	COc1ccc(NCCCn2ccc3ccc(C(=O)NO)cc3c2=O)cc1 [Compound I-34, N-hydroxy-2-{3-[(4-methoxyphenyl)amino]propyl}-1-oxo-1,2-dihydroisoquinoline-7-carboxamide]
